In patent US20220354805A1, “Cannabidiol (CBD) as Chemical for Treating Aging-related Degenerative Diseases and Promoting Health Aging” (Hemix Biotech Limited, priority 2021, published 2022):

What was measured:
[1] = system: Human mesenchymal stem cells (MSCs); experiment: Senolytic effect in MSCs upon irradiation induced senescence (relative cell viability); assay type: cell-based; conditions: 24-hour treatment, normalized to non-irradiated control
Protocol: Human mesenchymal stem cells (MSCs) were counted by using LUNA-II Automated Cell Counter. 1.0×10^5 cells were seeded to each well of 6-well plate and cultured for 24 hours. The cells were divided into two groups: non-irradiated and irradiated group. The irradiated group received gamma irradiation by irradiator. 10 Gy was the dosage of irradiation used. 24 hours after the irradiation, the non-irradiated and irradiated group were treated with different concentration of chemical. After 24-hour treatment, the cells were counted again using LUNA-II Automated Cell Counter. The population doubling level (PDL) which reflects the proliferation rate of cells was calculated by the formula: n=3.32×(logUCY−logI)+X, where n=the PDL number, UCY=the cell yield at that time point, I=the initial cell number, and X=the doubling level of the cells used to initiate the subculture being quantitated.
The relative cell viability was calculated by normalizing each sample to non-irradiated control sample. […] As CBD selectively killed senescent MSCs while keeping proliferating MSCs unharmed, it was discovered to be a novel senolytic. Referring to FIG. 12b, Western blotting was carried to investigate the mechanism behind CBD's senolytic effect. […] While as proliferating and senescent MSCs responded differently in phosphorylated akt level.

[2] = system: premature aging LMNA^G609G/G609G mice; experiment: Healthspan analysis of LMNA^G609G/G609G mice; assay type: in vivo, mouse
Protocol: In the step of analyzing the healthspan of LMNA^G609G/G609G mice, for chemical treatment in mice, 2 months old LMNA^G609G/G609G mice were used. They received an intraperitoneal injection (IP) twice a week until they reached the humane point. Different dosages were used for the injection, 50 mg/kg of CBD was identified as the optimal dosage with the greatest extend in healthspan of the treated mice. CBD was dissolved in 5% DMSO and 5% polyethylene glycol (PEG) in sterile saline and stored at −80° C. for up to 1 month.

[3] = system: LMNA^G609G/G609G MEFs; experiment: RNA sequencing of differentially expressed genes in MEFs; assay type: cell-based, mouse; conditions: 10 μM CBD, 4 days
Protocol: Primary mouse embryonic fibroblasts (MEFs) at passage 3 were seeded and cultured in 10-cm dish and treated with CBD for 4 days. The cells were washed twice with ice-cold phosphate buffered saline (PBS), and 1 mL TRIzol was added. After incubation at room temperature for 5 minutes, the samples were collected into Eppendorf tubes. The supernatants were collected to Eppendorf tubes. 200 μl of chloroform was added to each sample, and the tubes were shaken vigorously by hand for 15 seconds. The samples were incubated at room temperature for 5 minutes and then centrifuged at 4° C. at 12000 rcf for 15 minutes. After centrifugation, the solution was separated into 3 layers. 450 μl of the clear top layer was collected, and 500 μl of isopropanol was added. […] The RNA quantitation was done using Nanodrop and Agilent 2100 Bioanalyzer. The RNA integrity was measured using Agilent 2100 Bioanalyzer. The RNA purity was measured using agarose gel electrophoresis and Agilent 2100 Bioanalyzer. […]
Illumina sequencing system was used for paired-end reads of read lengths PE150. […] The results were validated by quantitative polymerase chain reaction (qPCR). […] The concentration of RNA was measured by nanodrop. […] Then the samples were ready for qPCR. […] The delta-delta-ct value was calculated by the qPCR machine based on the signal of target genes normalized with housekeeping genes.

[4] = system: LMNA^G609G/G609G MEFs; experiment: Relative nuclear circularity of MEFs; assay type: cell-based, mouse; conditions: 12-day CBD treatment, vs control
Protocol: In the step of determining the relative nuclear circularity, the primary mouse embryonic fibroblasts (MEFs) at passage 3 were seeded and cultured in chamber slides. Nuclei were stained using DAPI or LMNA/C antibodies. The fluorescence images were captured using confocal microscopy. The perimeter and area of the individual nucleus were measured using software CellProfiler. Relative nuclear circularity was calculated using the formula: […]
A value of 1 in relative nuclear circularity indicates a perfect circle. Nuclei with relative nuclear circularity closer to 0 indicate they are more irregularly shaped.

[5] = 50 mg/kg CBD IP twice a week from 2 months old

C=C(C)[C@@H]1CCC(C)=C[C@H]1c1c(O)cc(CCCCC)cc1O [CBD, Cannabidiol]
relative cell viability, irradiated senescent MSCs ([1]; 10 Gy gamma irradiation): significantly decrease the cell viability | relative cell viability, non-irradiated control MSCs [1]: significantly increase the cell viability | increase in maximum healthspan [2, 5]: 19.8% | increase in median healthspan [2, 5]: 8% | increase of healthspan (FIG. 6b legend) ([2]; 50 mg/kg CBD twice a week from 2 months old): 11.2% | optimal dosage (greatest extend in healthspan) ([2]; IP twice a week, from 2 months old): 50 mg/kg | differentially expressed genes restored to normal levels [3]: 1066 out of 1363 | share of differentially expressed genes restored to normal levels [3]: 78% | relative nuclear circularity [4]: significantly increased the relative nuclear circularity
